Data on eleven compounds can be found in PubChem BioAssay (NCI).

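Values below derive from 48-hour exposures of cells grown in 96-well plates, with endpoints linearly interpolated between the two concentrations bracketing the appropriate inhibition level. The concentration for 50% growth inhibition is given as GI50. TGI: concentration producing complete growth inhibition.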 Where only a bound is given, the exact number is not on record here.

Some test systems named below: OVCAR-4 ovarian; DU-145 prostate; SN12C renal; SR leukemia; CAKI-1 renal; SK-MEL-5 melanoma; SK-OV-3 ovarian; HOP-92 NSCLC; HL-60(TB) leukemia; EKVX NSCLC.
Holding throughout (test): NCI-60 cell line screen, 48 h

As for `CC(=O)OCC1OC(n2ncc(=O)[nH]c2=O)C(OC(C)=O)C1OC(C)=O` (stereo not given), the TGI with OVCAR-4 ovarian, in the experiment with DU-145 prostate, with SN12C renal, in the experiment on SR leukemia, in the experiment on CAKI-1 renal and with SK-MEL-5 melanoma was over 100 µM in each case. The TGI with SK-OV-3 ovarian and with HOP-92 NSCLC was over 100 µM throughout.
`CCOC(=O)CN(c1ccccc1)c1nc(=[N+](C)C)ss1`: the TGI with OVCAR-4 ovarian is 32.7 µM; with HL-60(TB) leukemia, 48.4 µM; in the experiment on SN12C renal it was 36.7 µM; in the experiment on SR leukemia it was 41.9 µM; in the experiment with CAKI-1 renal it was 87.8 µM; in the experiment with SK-OV-3 ovarian, over 100 µM.
`O=C1c2cc(F)ccc2-c2c1c1ccc([N+](=O)[O-])cc1c(=O)n2CCCBr`: the GI50 in the experiment with OVCAR-4 ovarian was over 100 µM; in the experiment on DU-145 prostate, 3.38 µM; with SN12C renal, 27.4 µM; in the experiment on SR leukemia it was 88.5 nM; in the experiment on CAKI-1 renal, 27.3 µM; in the experiment on SK-MEL-5 melanoma it was 11.7 µM. Besides, the values for the GI50 with EKVX NSCLC and with SK-OV-3 ovarian were over 100 µM and 20.2 µM, respectively. The TGI is over 100 µM in the experiment with OVCAR-4 ovarian; over 100 µM in the experiment with DU-145 prostate; over 100 µM in the experiment with SN12C renal; 1.74 µM with SR leukemia; over 100 µM in the experiment on CAKI-1 renal; 40.3 µM with SK-MEL-5 melanoma. The TGI in the experiment with EKVX NSCLC and with SK-OV-3 ovarian was over 100 µM in each case.
Turning to `NCCSC(c1ccccc1)(c1ccccc1)c1ccccc1`, the GI50 with OVCAR-4 ovarian was 2.94 µM; with HL-60(TB) leukemia, 0.879 µM; in the experiment on DU-145 prostate, 2.32 µM; with SN12C renal, 0.739 µM; with SR leukemia, 340 nM; with CAKI-1 renal it was 3.51 µM. Further, the GI50 was 1.01 µM in the experiment with SK-MEL-5 melanoma and 0.512 µM with SK-OV-3 ovarian. The TGI stood at 12.9 µM with OVCAR-4 ovarian; 3.03 µM in the experiment on HL-60(TB) leukemia; 6.07 µM in the experiment with DU-145 prostate; 11.7 µM with SN12C renal; 1.82 µM in the experiment on SR leukemia; 16.1 µM in the experiment on CAKI-1 renal. The TGI with SK-MEL-5 melanoma is 2.25 µM; with SK-OV-3 ovarian, 12.5 µM.
As for `CC(=O)N[C@@H](Cc1ccc(OP(=O)(O)O)cc1)C(=O)N[C@H]1CCC(=O)N2CCC[C@@H](C(=O)NCc3ccccc3)N2C1=O`, the GI50 is over 25 µM in the experiment with OVCAR-4 ovarian; over 25 µM in the experiment on HL-60(TB) leukemia; over 25 µM in the experiment on DU-145 prostate; over 25 µM with SN12C renal; over 25000 nM in the experiment on SR leukemia; over 25 µM in the experiment with CAKI-1 renal. Also, the GI50 in the experiment with SK-MEL-5 melanoma and in the experiment on SK-OV-3 ovarian was over 25 µM each time. Moreover, the TGI with OVCAR-4 ovarian, in the experiment on HL-60(TB) leukemia, with DU-145 prostate, in the experiment on SN12C renal, in the experiment with SR leukemia and in the experiment with CAKI-1 renal was over 25 µM in each case. Also, the TGI in the experiment with SK-MEL-5 melanoma and in the experiment with SK-OV-3 ovarian was over 25 µM in each case.
Consider `COc1cc(CCNC(=O)OC(C)(C)C)c2c(c1OC)SSSSS2`, for which the GI50 in the experiment on OVCAR-4 ovarian was 2.05 µM; in the experiment on HL-60(TB) leukemia, 2.92 µM; in the experiment on SN12C renal, 3.74 µM; with SR leukemia, 4480 nM; in the experiment with CAKI-1 renal it was 2.17 µM; with SK-MEL-5 melanoma, 1.84 µM. In addition, the GI50 with EKVX NSCLC is 2.69 µM; in the experiment with SK-OV-3 ovarian it was 2.8 µM; in the experiment with HOP-92 NSCLC it was 2.31 µM. Also, the TGI came to 4.82 µM in the experiment on OVCAR-4 ovarian; 13.4 µM with HL-60(TB) leukemia; 15.8 µM in the experiment with SN12C renal; 32.8 µM in the experiment with SR leukemia; 4.28 µM with CAKI-1 renal; 3.38 µM in the experiment with SK-MEL-5 melanoma. The TGI in the experiment with EKVX NSCLC was found to be 5.97 µM; in the experiment on SK-OV-3 ovarian, 6.05 µM; with HOP-92 NSCLC it was 4.79 µM.
For `Cc1ccc(C2=Nc3ccccc3S(=O)C(c3ccc4c(c3)OCO4)C2)cc1` (stereo not given), the TGI with OVCAR-4 ovarian was over 100 µM; in the experiment on HL-60(TB) leukemia, 59.1 µM; in the experiment on SN12C renal it was 33.5 µM; in the experiment with SR leukemia, over 100 µM; in the experiment with CAKI-1 renal, over 100 µM; in the experiment with SK-MEL-5 melanoma, 29.2 µM. Moreover, the TGI with EKVX NSCLC is over 100 µM; in the experiment on SK-OV-3 ovarian, 91.3 µM.
Take `CC(C)=NNC(=S)NC12CC3CC(CC(C3)C1)C2`: the TGI with OVCAR-4 ovarian, in the experiment with HL-60(TB) leukemia, with SN12C renal, in the experiment on SR leukemia, in the experiment on CAKI-1 renal and in the experiment with SK-MEL-5 melanoma was over 100 µM throughout. Moreover, the TGI with EKVX NSCLC, in the experiment with SK-OV-3 ovarian and in the experiment on HOP-92 NSCLC was over 100 µM each time.
Take `Cc1[nH]nc2ncc(C(=O)N3CCC[C@H]3c3ccc(Cl)cc3)cc12`: the GI50 in the experiment on OVCAR-4 ovarian is 96.6 µM; with HL-60(TB) leukemia, 32.6 µM; with DU-145 prostate, over 100 µM; in the experiment on SN12C renal, over 100 µM; in the experiment on CAKI-1 renal, over 100 µM; in the experiment with SK-MEL-5 melanoma, 31 µM. Moreover, the figures for the GI50 in the experiment with EKVX NSCLC, with SK-OV-3 ovarian and with HOP-92 NSCLC were 79.8 µM, over 100 µM and 80.7 µM, respectively. Moreover, the TGI with OVCAR-4 ovarian was over 100 µM; in the experiment with HL-60(TB) leukemia, 90.7 µM; in the experiment on DU-145 prostate, over 100 µM; in the experiment with SN12C renal it was over 100 µM; in the experiment on CAKI-1 renal, over 100 µM; with SK-MEL-5 melanoma, over 100 µM. Moreover, the TGI in the experiment on EKVX NSCLC, with SK-OV-3 ovarian and in the experiment with HOP-92 NSCLC was over 100 µM throughout.
For `COC(=O)C1[C@H](c2ccc3c(c2)OCO3)OC(=O)[C@]1(C(=O)OC)C(=O)c1ccc(OC)c(OC)c1` (stereo not given in full), the TGI is over 100 µM in the experiment with OVCAR-4 ovarian; 55.2 µM in the experiment with HL-60(TB) leukemia; over 100 µM in the experiment with SN12C renal; over 100 µM in the experiment on SR leukemia; over 100 µM with CAKI-1 renal; over 100 µM in the experiment on SK-MEL-5 melanoma. In addition, the TGI in the experiment on EKVX NSCLC, in the experiment on SK-OV-3 ovarian and in the experiment on HOP-92 NSCLC was over 100 µM each time.
Consider `O=C(c1ccccc1)c1nc2ccc(C(F)(F)F)cc2nc1N1CCN(c2ccccc2)CC1`, for which the GI50 with HL-60(TB) leukemia was 30.9 µM; in the experiment on DU-145 prostate, 57.6 µM; in the experiment with SN12C renal, 36.2 µM; in the experiment with CAKI-1 renal it was 26.2 µM; in the experiment with SK-MEL-5 melanoma, 15.9 µM; with EKVX NSCLC, 79.3 µM. The GI50 in the experiment with SK-OV-3 ovarian is over 100 µM; in the experiment on HOP-92 NSCLC, 49.3 µM. Also, the TGI in the experiment with HL-60(TB) leukemia is over 100 µM; in the experiment on DU-145 prostate, over 100 µM; with SN12C renal, over 100 µM; with CAKI-1 renal, 74.7 µM; in the experiment on SK-MEL-5 melanoma, 32.7 µM; in the experiment with EKVX NSCLC it was over 100 µM. For the same compound, the TGI in the experiment on SK-OV-3 ovarian and with HOP-92 NSCLC was over 100 µM in each case.
